Legend:
[1] = target: T1, Testis-specific serine/threonine-protein kinase 1 (Homo sapiens) (UniProt Q9BXA7); assay: Residual activity of TSSK1 at 1 uM by microplate scintillation counting
T1 sequence (whole entry): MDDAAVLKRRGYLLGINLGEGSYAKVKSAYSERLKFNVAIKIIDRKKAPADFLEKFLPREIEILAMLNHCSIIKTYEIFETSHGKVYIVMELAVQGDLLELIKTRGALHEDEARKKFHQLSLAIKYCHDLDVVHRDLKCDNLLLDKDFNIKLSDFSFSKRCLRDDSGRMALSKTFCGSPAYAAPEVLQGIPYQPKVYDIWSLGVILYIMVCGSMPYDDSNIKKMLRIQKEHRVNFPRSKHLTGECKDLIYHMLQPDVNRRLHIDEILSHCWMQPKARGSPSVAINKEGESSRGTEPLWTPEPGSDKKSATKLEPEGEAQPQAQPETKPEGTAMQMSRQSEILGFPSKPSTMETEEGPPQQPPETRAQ

[2] = target: Focal adhesion kinase 1 (Homo sapiens) (UniProt Q05397); assay: Residual activity of FAK at 1 uM by microplate scintillation counting
[3] = target: Tyrosine-protein kinase FRK (Homo sapiens) (UniProt P42685); assay: Residual activity of FRK at 10 uM by microplate scintillation counting
[4] = target: Mast/stem cell growth factor receptor Kit (Homo sapiens) (UniProt P10721); assay: Residual activity of wild type KIT at 10 uM by microplate scintillation counting
[5] = target: Cyclin-dependent kinase 2/cyclin A (Homo sapiens) (UniProt P24941+P20248+P78396); assay: Residual activity of CDK2/Cyclin A at 0.1 uM by microplate scintillation counting; type: protein-complex assay
[6] = target: Casein kinase I isoform gamma-3 (Homo sapiens) (UniProt Q9Y6M4); assay: Residual activity of CK1gamma3 at 0.1 uM by microplate scintillation counting
[7] = target: T2, Serine/threonine-protein kinase PLK4 (Homo sapiens) (UniProt O00444); assay: Residual activity of SAK at 10 uM by microplate scintillation counting
T2 sequence (whole entry): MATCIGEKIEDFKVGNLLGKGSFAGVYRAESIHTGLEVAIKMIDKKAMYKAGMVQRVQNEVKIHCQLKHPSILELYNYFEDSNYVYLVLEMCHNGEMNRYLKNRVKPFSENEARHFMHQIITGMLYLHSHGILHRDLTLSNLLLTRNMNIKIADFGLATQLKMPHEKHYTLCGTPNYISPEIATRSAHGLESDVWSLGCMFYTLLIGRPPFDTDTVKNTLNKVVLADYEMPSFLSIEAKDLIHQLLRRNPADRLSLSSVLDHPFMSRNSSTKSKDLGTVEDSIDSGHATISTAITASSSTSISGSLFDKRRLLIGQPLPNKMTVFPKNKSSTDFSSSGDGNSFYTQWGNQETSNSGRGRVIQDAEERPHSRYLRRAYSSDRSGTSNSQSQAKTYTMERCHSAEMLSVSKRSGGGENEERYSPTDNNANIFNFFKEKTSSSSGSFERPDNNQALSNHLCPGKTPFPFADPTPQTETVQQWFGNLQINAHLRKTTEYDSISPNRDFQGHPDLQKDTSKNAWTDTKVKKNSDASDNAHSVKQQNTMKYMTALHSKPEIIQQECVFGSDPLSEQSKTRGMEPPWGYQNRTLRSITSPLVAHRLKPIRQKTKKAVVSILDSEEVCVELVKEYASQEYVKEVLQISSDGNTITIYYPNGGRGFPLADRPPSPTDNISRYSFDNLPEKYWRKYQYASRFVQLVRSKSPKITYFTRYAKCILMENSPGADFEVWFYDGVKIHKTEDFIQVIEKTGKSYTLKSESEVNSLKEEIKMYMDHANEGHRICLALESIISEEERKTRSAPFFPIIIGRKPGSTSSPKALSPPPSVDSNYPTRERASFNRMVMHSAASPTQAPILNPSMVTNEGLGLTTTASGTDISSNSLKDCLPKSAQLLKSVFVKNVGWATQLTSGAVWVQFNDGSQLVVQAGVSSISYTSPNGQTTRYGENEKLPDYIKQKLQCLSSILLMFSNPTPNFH

[8] = target: Mitogen-activated protein kinase kinase kinase 14 (Homo sapiens) (UniProt Q99558); assay: Residual activity of NIK at 10 uM by microplate scintillation counting
[9] = target: Protein kinase C alpha type (Homo sapiens) (UniProt P17252); assay: Residual activity of PKCalpha at 1 uM by microplate scintillation counting
[10] = target: Mitogen-activated protein kinase 9 (Homo sapiens) (UniProt P45984); assay: Residual activity of JNK2 at 1 uM by microplate scintillation counting
[11] = target: Serine/threonine-protein kinase N1 (Homo sapiens) (UniProt Q16512); assay: Residual activity of PRK1 at 0.1 uM by microplate scintillation counting
[12] = target: T3, Serine/threonine-protein kinase 3 (Homo sapiens) (UniProt Q13188); assay: Residual activity of MST2 at 10 uM by microplate scintillation counting
T3 sequence (whole entry): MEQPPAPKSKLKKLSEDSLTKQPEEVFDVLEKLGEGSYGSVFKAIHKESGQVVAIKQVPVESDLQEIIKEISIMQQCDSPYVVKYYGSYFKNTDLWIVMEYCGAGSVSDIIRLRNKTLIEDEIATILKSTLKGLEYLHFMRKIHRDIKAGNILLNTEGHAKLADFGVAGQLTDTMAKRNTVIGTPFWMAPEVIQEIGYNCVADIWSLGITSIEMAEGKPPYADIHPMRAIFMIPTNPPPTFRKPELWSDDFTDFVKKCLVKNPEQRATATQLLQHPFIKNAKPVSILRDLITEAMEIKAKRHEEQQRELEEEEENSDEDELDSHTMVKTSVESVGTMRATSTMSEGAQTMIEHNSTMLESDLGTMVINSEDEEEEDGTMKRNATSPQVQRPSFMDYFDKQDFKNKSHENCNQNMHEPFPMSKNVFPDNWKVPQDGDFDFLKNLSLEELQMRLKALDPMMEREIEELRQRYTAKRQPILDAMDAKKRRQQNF

[13] = target: PAS domain-containing serine/threonine-protein kinase (Homo sapiens) (UniProt Q96RG2); assay: Residual activity of PASK at 1 uM by microplate scintillation counting
[14] = target: Focal adhesion kinase 1 (Homo sapiens) (UniProt Q05397); assay: Residual activity of FAK at 0.1 uM by microplate scintillation counting

Focal adhesion kinase 1 (Homo sapiens), sequence (Q05397 2-1052 limits assumed): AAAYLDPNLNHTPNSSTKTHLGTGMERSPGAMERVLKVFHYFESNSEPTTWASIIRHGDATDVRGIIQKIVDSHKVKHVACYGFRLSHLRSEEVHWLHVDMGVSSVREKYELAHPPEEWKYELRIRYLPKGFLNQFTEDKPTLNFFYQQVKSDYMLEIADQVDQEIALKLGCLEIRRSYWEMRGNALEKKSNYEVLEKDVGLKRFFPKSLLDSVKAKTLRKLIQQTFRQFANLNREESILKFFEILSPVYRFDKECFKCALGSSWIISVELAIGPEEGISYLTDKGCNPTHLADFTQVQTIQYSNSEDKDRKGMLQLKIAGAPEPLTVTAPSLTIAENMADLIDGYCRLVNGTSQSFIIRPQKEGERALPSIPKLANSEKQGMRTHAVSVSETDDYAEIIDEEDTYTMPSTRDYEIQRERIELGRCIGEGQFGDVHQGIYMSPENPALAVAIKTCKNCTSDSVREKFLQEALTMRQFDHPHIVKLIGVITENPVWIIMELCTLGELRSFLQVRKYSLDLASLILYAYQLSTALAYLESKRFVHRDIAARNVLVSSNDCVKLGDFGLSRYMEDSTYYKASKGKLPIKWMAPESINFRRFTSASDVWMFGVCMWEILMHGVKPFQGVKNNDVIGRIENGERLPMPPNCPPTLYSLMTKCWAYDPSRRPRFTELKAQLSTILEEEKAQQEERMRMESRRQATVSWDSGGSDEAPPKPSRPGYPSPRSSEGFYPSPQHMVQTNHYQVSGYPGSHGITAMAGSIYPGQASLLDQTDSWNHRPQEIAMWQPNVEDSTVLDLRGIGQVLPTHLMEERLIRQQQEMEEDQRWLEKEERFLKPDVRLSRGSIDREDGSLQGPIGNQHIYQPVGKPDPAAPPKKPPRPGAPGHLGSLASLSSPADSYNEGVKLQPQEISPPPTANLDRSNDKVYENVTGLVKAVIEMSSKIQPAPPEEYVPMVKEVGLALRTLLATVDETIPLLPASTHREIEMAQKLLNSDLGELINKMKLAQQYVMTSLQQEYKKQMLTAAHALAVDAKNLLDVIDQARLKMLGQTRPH
Mast/stem cell growth factor receptor Kit (Homo sapiens), sequence (P10721 whole entry): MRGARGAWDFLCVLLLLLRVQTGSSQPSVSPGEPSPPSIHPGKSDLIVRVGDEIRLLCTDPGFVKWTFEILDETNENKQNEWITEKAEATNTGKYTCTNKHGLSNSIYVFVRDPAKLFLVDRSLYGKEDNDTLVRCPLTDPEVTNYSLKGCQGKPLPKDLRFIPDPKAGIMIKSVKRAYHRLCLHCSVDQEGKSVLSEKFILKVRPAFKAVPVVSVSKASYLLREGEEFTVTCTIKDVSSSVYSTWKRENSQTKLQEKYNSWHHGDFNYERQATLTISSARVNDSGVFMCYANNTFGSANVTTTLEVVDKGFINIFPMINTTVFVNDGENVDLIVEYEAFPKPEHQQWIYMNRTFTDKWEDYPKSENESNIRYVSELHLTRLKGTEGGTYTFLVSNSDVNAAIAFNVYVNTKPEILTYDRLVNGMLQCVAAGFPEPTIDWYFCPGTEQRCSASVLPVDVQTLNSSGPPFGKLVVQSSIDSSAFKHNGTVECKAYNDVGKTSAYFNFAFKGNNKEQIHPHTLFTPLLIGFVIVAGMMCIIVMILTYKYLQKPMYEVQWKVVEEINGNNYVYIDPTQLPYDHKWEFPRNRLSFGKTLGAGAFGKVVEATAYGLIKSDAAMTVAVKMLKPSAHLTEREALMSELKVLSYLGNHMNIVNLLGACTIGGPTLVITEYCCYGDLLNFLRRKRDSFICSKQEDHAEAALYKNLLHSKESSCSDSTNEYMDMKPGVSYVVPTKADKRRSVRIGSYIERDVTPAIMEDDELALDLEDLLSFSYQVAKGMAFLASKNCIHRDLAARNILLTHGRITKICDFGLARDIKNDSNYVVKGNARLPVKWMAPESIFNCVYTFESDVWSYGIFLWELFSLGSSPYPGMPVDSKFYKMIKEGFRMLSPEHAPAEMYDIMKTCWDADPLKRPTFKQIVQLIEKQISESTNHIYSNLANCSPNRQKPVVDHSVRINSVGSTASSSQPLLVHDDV
Casein kinase I isoform gamma-3 (Homo sapiens), sequence (Q9Y6M4 whole entry, looked up, canonical isoform): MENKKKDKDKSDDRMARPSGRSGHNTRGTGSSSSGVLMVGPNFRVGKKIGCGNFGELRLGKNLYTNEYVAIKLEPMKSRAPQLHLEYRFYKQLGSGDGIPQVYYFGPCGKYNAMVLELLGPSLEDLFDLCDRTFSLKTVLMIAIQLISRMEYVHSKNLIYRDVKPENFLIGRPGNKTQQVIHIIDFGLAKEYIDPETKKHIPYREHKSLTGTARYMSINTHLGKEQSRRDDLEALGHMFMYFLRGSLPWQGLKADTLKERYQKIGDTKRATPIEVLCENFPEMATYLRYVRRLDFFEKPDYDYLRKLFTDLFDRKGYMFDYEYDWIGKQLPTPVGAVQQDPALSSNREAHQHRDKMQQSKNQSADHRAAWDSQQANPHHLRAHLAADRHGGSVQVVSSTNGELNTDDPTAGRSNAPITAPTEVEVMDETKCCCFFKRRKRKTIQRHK
Mitogen-activated protein kinase 9 (Homo sapiens), sequence (P45984 whole entry, looked up): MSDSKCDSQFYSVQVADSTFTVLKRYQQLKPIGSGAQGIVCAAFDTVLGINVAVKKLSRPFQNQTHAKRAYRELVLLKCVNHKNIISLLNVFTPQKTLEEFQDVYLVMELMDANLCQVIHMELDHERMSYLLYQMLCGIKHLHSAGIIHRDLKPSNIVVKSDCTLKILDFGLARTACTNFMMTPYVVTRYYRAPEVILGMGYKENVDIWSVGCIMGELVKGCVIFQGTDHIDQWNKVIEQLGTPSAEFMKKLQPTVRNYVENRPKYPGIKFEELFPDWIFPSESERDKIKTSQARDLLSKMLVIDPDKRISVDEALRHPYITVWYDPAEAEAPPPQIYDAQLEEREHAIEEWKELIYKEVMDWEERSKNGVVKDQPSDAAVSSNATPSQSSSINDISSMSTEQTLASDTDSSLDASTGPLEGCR
Mitogen-activated protein kinase kinase kinase 14 (Homo sapiens), sequence (Q99558 whole entry, looked up): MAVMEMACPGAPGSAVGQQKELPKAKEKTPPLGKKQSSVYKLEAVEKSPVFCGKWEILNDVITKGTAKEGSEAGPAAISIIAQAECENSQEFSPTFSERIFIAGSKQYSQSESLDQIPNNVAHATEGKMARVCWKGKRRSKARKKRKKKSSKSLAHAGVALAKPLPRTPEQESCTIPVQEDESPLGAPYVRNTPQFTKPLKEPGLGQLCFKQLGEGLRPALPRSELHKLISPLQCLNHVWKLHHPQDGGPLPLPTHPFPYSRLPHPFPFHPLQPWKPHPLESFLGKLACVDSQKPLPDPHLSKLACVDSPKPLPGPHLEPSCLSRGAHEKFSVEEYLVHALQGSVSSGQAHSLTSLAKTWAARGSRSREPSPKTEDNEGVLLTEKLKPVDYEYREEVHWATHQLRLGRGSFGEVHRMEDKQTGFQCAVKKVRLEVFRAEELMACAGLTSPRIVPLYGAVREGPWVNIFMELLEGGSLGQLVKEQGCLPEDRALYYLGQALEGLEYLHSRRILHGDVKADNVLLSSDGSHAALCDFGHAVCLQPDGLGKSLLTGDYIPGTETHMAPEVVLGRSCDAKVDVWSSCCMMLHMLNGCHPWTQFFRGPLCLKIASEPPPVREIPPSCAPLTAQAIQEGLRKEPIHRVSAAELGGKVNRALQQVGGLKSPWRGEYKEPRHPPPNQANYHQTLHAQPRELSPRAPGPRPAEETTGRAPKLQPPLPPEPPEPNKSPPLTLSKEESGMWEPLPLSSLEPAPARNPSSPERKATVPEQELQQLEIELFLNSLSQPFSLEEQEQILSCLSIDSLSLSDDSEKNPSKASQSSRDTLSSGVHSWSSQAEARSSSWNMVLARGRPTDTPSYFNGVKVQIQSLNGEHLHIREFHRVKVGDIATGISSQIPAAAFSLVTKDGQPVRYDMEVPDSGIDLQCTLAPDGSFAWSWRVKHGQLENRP
Tyrosine-protein kinase FRK (Homo sapiens), sequence (P42685 whole entry): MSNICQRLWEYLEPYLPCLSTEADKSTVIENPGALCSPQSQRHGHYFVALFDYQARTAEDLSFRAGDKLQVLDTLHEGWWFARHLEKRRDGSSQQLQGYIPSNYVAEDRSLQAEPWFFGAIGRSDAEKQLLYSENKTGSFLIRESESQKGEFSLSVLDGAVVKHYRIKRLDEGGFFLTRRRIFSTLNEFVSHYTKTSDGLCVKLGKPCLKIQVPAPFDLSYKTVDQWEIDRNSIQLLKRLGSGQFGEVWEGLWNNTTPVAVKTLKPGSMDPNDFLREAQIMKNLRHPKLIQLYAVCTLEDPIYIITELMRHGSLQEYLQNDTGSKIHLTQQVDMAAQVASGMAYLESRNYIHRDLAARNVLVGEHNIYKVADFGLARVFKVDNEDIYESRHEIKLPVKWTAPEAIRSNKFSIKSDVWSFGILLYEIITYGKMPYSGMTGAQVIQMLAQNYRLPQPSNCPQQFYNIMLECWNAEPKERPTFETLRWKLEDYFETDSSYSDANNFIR

COc1cc2c(Oc3ccc(-c4nc5ccccc5s4)cc3F)ncnc2cc1OCCCN1CCN(C)CC1
residual activity [1]: 73% | residual activity [2]: 104% | residual activity [3]: 24% | residual activity [4]: 32% | residual activity [5]: 100% | residual activity [6]: 90% | residual activity [7]: 1% | residual activity [8]: 107% | residual activity [9]: 98% | residual activity [10]: 119% | residual activity [11]: 94% | residual activity [12]: 23% | residual activity [13]: 83% | residual activity [14]: 98%

COc1cc2c(Oc3ccc(-c4nc5ccccc5s4)cc3)ncnc2cc1OCCCN1CCCC1
residual activity [1]: 40% | residual activity [2]: 98% | residual activity [3]: 71% | residual activity [4]: 31% | residual activity [5]: 96% | residual activity [6]: 94% | residual activity [7]: 1% | residual activity [8]: 125% | residual activity [9]: 128% | residual activity [10]: 90% | residual activity [11]: 96% | residual activity [12]: 20% | residual activity [13]: 94% | residual activity [14]: 99%

COc1cc2c(Oc3ccc(-c4nc5ccccc5s4)cc3)ncnc2cc1OCCCN1CCN(C)CC1
residual activity [1]: 55% | residual activity [2]: 93% | residual activity [3]: 61% | residual activity [4]: 30% | residual activity [5]: 94% | residual activity [6]: 76% | residual activity [7]: 1% | residual activity [8]: 94% | residual activity [9]: 99% | residual activity [10]: 121% | residual activity [11]: 99% | residual activity [12]: 21% | residual activity [13]: 88% | residual activity [14]: 94%

Reference: ChEMBL document CHEMBL1152560, “Substituted 2-arylbenzothiazoles as kinase inhibitors: hit-to-lead optimization” (Bioorg Med Chem, 2009)
